This is an account of results in PubChem BioAssay (NCI).

Molecules are shown by their SMILES. “And” between values parts separate entries of the source, which are not always exact repeats. Equal values may be shown once.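 Each compound was tested at five concentrations against cells in 96-well plates for 48 hours. GI50 is the concentration that inhibits growth by half. TGI: concentration producing complete growth inhibition.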 Where only a bound is given, the exact number is not on record here.

Among the test systems are HT29 colon; SF-295 CNS; A498 renal; UACC-257 melanoma; HCT-15 colon; IGROV1 ovarian; NCI-H226 lung; OVCAR-5 ovarian; DMS 273 small cell lung.
Holding throughout (test): NCI anticancer screen, dose series, 48 h

Turning to `C[C@]12CC[C@@H]3c4cc(OC(F)F)c(OS(N)(=O)=O)cc4CC[C@H]3[C@@H]1CC[C@@H]2O`, the GI50 is 0.371 µM in the assay with HT29 colon; 0.252 µM with SF-295 CNS; 0.199 µM in the assay on A498 renal; 3.76 µM in the assay with UACC-257 melanoma; 0.406 µM with HCT-15 colon; 0.646 µM in the assay on IGROV1 ovarian. The GI50 in the assay on NCI-H226 lung is 1.8 µM; in the assay on OVCAR-5 ovarian, 1.77 µM. Further, the TGI was found to be 13.9 µM with HT29 colon; 1.03 µM in the assay with SF-295 CNS; 0.86 µM in the assay on A498 renal; 25.8 µM with UACC-257 melanoma; 13.6 µM with HCT-15 colon; 24.9 µM with IGROV1 ovarian. Moreover, the TGI was 21.8 µM in the assay with NCI-H226 lung and greater than 62.8 µM in the assay on OVCAR-5 ovarian.

In the case of `OCCNC1c2cc(Cl)ccc2-c2c(Cl)cc(Cl)cc21` (stereo not drawn), the TGI is greater than 100 µM in the assay on HT29 colon; greater than 100 µM in the assay with SF-295 CNS; greater than 100 µM with A498 renal; greater than 100 µM with UACC-257 melanoma; greater than 100 µM with HCT-15 colon; 47 µM in the assay on IGROV1 ovarian. For the same compound, the TGI in the assay on NCI-H226 lung and in the assay on OVCAR-5 ovarian was greater than 100 µM each time.

In the case of `CC1=C(CC(=O)c2cccc([N+](=O)[O-])c2)C(=O)c2ccccc2C1=O`, the GI50 in the assay with HT29 colon is 20.1 µM; in the assay with SF-295 CNS, 17.7 µM; in the assay with A498 renal, 42.5 µM; in the assay on UACC-257 melanoma it was 3.94 µM; in the assay with HCT-15 colon, 3.79 µM; with IGROV1 ovarian, 4.62 µM. Also, the figures for the GI50 in the assay with NCI-H226 lung and with OVCAR-5 ovarian were 18.7 µM and 6.98 µM, respectively. In addition, the TGI in the assay with HT29 colon was 58.8 µM; with SF-295 CNS, 36.4 µM; in the assay on A498 renal it was greater than 100 µM; with UACC-257 melanoma, 16.1 µM; in the assay with HCT-15 colon, 19.5 µM; in the assay with IGROV1 ovarian it was 29 µM. Further, the values for the TGI in the assay on NCI-H226 lung and in the assay on OVCAR-5 ovarian were 46.5 µM and 20.5 µM, respectively.

`CC(=O)NCc1cccc(C#Cc2cncnc2Nc2ccc(OCc3cccc(F)c3)c(Cl)c2)c1`: the GI50 in the assay on HT29 colon is 9.19 µM; in the assay on SF-295 CNS it was 8.02 µM; in the assay on A498 renal, 3.52 µM; in the assay with UACC-257 melanoma, 12.3 µM; in the assay on HCT-15 colon, 8.31 µM; in the assay on IGROV1 ovarian, 5.51 µM. The GI50 with NCI-H226 lung is greater than 21.1 µM; with OVCAR-5 ovarian, 9.13 µM. Further, the TGI is greater than 25 µM in the assay on HT29 colon; greater than 25 µM in the assay with SF-295 CNS; 24.8 µM with A498 renal; greater than 25 µM with UACC-257 melanoma; greater than 25 µM in the assay with HCT-15 colon; greater than 25 µM with IGROV1 ovarian. In addition, the TGI in the assay with NCI-H226 lung and with OVCAR-5 ovarian was greater than 25 µM throughout.

With `COc1cc2nc(-c3cc(F)ccc3O)nc(N[C@@H]3CNC[C@H]3C(C)(C)O)c2cc1OC`, the GI50 with HT29 colon was 2 µM; in the assay on SF-295 CNS, 1.98 µM; with A498 renal, 1.12 µM; in the assay with UACC-257 melanoma, 1.69 µM; with HCT-15 colon it was 1.79 µM; with IGROV1 ovarian, 1.47 µM. Moreover, the values for the GI50 with NCI-H226 lung and in the assay with OVCAR-5 ovarian were 1.48 µM and 1.5 µM, respectively. The TGI was 3.85 µM in the assay on HT29 colon; 4.14 µM in the assay on SF-295 CNS; 2.6 µM in the assay with A498 renal; 3.15 µM in the assay with UACC-257 melanoma; 3.46 µM with HCT-15 colon; 3.43 µM in the assay with IGROV1 ovarian. Moreover, the TGI with NCI-H226 lung is 4.38 µM; with OVCAR-5 ovarian, 3.67 µM.

`CC(C)(Br)C(=O)C(Br)Br`: the GI50 in the assay with HT29 colon was 6.16 µM; in the assay on SF-295 CNS it was 21.1 µM; in the assay on UACC-257 melanoma it was 5.21 µM; in the assay with HCT-15 colon, 4.88 µM; with IGROV1 ovarian, 3.66 µM; in the assay with NCI-H226 lung, 7.5 µM. Moreover, in the assay on OVCAR-5 ovarian, the GI50 was 5.26 µM. Also, the TGI with HT29 colon was 24 µM and 11.8 µM; in the assay with SF-295 CNS, 32.8 µM and 63.3 µM; in the assay on A498 renal, greater than 54.4 µM; in the assay on DMS 273 small cell lung it was 26.9 µM; in the assay on UACC-257 melanoma it was 22.4 µM and 9.43 µM; in the assay on HCT-15 colon, > 21.9 µM and 9.57 µM. For the same compound, the TGI with IGROV1 ovarian is 21.8 µM and 8.09 µM; with NCI-H226 lung, 30.6 µM and 21.3 µM; in the assay on OVCAR-5 ovarian, 30.6 µM and 9.58 µM.

Regarding `Cc1cc(N(CCCNc2ccnc3cc(Cl)ccc23)Cc2ccco2)nc(N2CCN(C)CC2)n1`, the GI50 in the assay on HT29 colon is 2.73 µM; in the assay on SF-295 CNS it was 1.87 µM; in the assay on A498 renal it was 9.15 µM; in the assay on UACC-257 melanoma it was 1.97 µM; in the assay on HCT-15 colon it was 2.07 µM; in the assay on IGROV1 ovarian, 2.39 µM. In addition, the GI50 was 12.4 µM in the assay with NCI-H226 lung and 6.08 µM in the assay on OVCAR-5 ovarian. For the same compound, the TGI was 11 µM with HT29 colon; 3.84 µM with SF-295 CNS; 45.5 µM in the assay with A498 renal; 3.8 µM in the assay on UACC-257 melanoma; 10.5 µM with HCT-15 colon; 12.3 µM in the assay with IGROV1 ovarian. The TGI worked out at 24.8 µM in the assay with NCI-H226 lung and 21.8 µM in the assay with OVCAR-5 ovarian.

In the case of `c1ccc(CCc2cccnc2)nc1`, the TGI in the assay with HT29 colon, with SF-295 CNS, with A498 renal, in the assay with UACC-257 melanoma, in the assay on HCT-15 colon and in the assay with IGROV1 ovarian was greater than 100 µM in each case. Further, the TGI in the assay on NCI-H226 lung and in the assay with OVCAR-5 ovarian was greater than 100 µM each time.

In the case of `Cc1cc(C)nc(SC2=C(Nc3cc(Cl)ccc3O)C(=O)N(Cc3ccccc3)C2=O)n1`, the GI50 was 33.8 µM in the assay on HT29 colon; 36.8 µM in the assay on SF-295 CNS; greater than 160 µM in the assay with A498 renal; 32.5 µM in the assay with UACC-257 melanoma; 23.5 µM in the assay with HCT-15 colon; 25.3 µM in the assay on IGROV1 ovarian. The GI50 with NCI-H226 lung is 1.78 µM; in the assay with OVCAR-5 ovarian, greater than 160 µM. The TGI is 65 µM in the assay on HT29 colon; greater than 160 µM in the assay on SF-295 CNS; greater than 160 µM in the assay with A498 renal; 102 µM in the assay with UACC-257 melanoma; 78.4 µM in the assay with HCT-15 colon; 88.6 µM in the assay on IGROV1 ovarian. Also, the values for the TGI with NCI-H226 lung and in the assay on OVCAR-5 ovarian were 47.7 µM and greater than 160 µM, respectively.
